Values of other authors in patent US20100273711A1, “INDIVIDUALIZED CANCER TREATMENTS” (priority 2007, published 2010).

Columns and labels:
A375 = conditions: cell line A375, melanoma; cited from earlier work
SKMel19 = conditions: cell line SKMel19, melanoma; cited from earlier work
SNU182 = conditions: cell line SNU182, HCC; cited from earlier work
SKOV-3 = conditions: cell line SKOV-3, ovarian ca; cited from earlier work
SNU423 = conditions: cell line SNU423, HCC; cited from earlier work
Hep3B = conditions: cell line Hep3B, HCC; cited from earlier work
BT20 = conditions: cell line BT20, breast ca; cited from earlier work
HRT-18 = conditions: cell line HRT-18, colon ca; cited from earlier work
C8161 = conditions: cell line C8161, melanoma; cited from earlier work
257p = conditions: cell line 257p, gastric ca; cited from earlier work
SKBR3 = conditions: cell line SKBR3, breast ca; cited from earlier work
SNU449 = conditions: cell line SNU449, HCC; cited from earlier work
ME43 = conditions: cell line ME43, melanoma; cited from earlier work
SNU475 = conditions: cell line SNU475, HCC; cited from earlier work
ES-2 = conditions: cell line ES-2, ovarian ca; cited from earlier work
181/85p = conditions: cell line 181/85p, pancreas ca; cited from earlier work
R103 = conditions: cell line R103, breast ca; cited from earlier work
MeWo = conditions: cell line MeWo, melanoma; cited from earlier work
SW13 = conditions: cell line SW13, adrenal cortex carcinoma; cited from earlier work
CX-2 = conditions: cell line CX-2, colon ca; cited from earlier work
R193 = conditions: cell line R193, breast ca; cited from earlier work
FU-OV-1 = conditions: cell line FU-OV-1, ovarian ca; cited from earlier work
Du145 = conditions: cell line Du145, prostate ca; cited from earlier work
OAW42 = conditions: cell line OAW42, ovarian ca; cited from earlier work
HT-29 = conditions: cell line HT-29, colon ca; cited from earlier work
OVCAR3 = conditions: cell line OVCAR3, ovarian ca; cited from earlier work
DV-90 = conditions: cell line DV-90, lung ca; cited from earlier work

**Q.** With `N.N.[Cl][Pt][Cl]` [Cisplatin, cisplatin] as the molecule, how does the “Cisplatin Resistant (Res) or Sensitive (Sen)” value (“Cisplatin Resistant” below) (A375) read?
**A.** Res

**Q.** And the “Cisplatin Resistant” value (SKMel19)?
**A.** Res

**Q.** And the “Cisplatin Resistant” value (SNU182)?
**A.** Res

**Q.** And the “Cisplatin Resistant” value (SKOV-3)?
**A.** Res

**Q.** What about the “Cisplatin Resistant” value (SNU423) of the same molecule?
**A.** Res

**Q.** What about the “Cisplatin Resistant” value (Hep3B) of the same molecule?
**A.** Res

**Q.** And the “Cisplatin Resistant” value (BT20)?
**A.** Sen

**Q.** And the “Cisplatin Resistant” value (HRT-18)?
**A.** Res

**Q.** And the “Cisplatin Resistant” value (C8161)?
**A.** Res

**Q.** And the “Cisplatin Resistant” value (257p)?
**A.** Res

**Q.** What about the “Cisplatin Resistant” value (SKBR3) of the same molecule?
**A.** Res

**Q.** What about the “Cisplatin Resistant” value (SNU449) of the same molecule?
**A.** Res

**Q.** What about the “Cisplatin Resistant” value (ME43) of the same molecule?
**A.** Res

**Q.** What about the “Cisplatin Resistant” value (SNU475) of the same molecule?
**A.** Res

**Q.** And the “Cisplatin Resistant” value (ES-2)?
**A.** Res

**Q.** And the “Cisplatin Resistant” value (181/85p)?
**A.** Res

**Q.** What about the “Cisplatin Resistant” value (R103) of the same molecule?
**A.** Sen

**Q.** What about the “Cisplatin Resistant” value (MeWo) of the same molecule?
**A.** Res

**Q.** And the “Cisplatin Resistant” value (SW13)?
**A.** Res

**Q.** What about the “Cisplatin Resistant” value (CX-2) of the same molecule?
**A.** Res

**Q.** What about the “Cisplatin Resistant” value (R193) of the same molecule?
**A.** Sen

**Q.** What about the “Cisplatin Resistant” value (FU-OV-1) of the same molecule?
**A.** Sen

**Q.** And the “Cisplatin Resistant” value (Du145)?
**A.** Res

**Q.** What about the “Cisplatin Resistant” value (OAW42) of the same molecule?
**A.** Sen

**Q.** And the “Cisplatin Resistant” value (HT-29)?
**A.** Res

**Q.** What about the “Cisplatin Resistant” value (OVCAR3) of the same molecule?
**A.** Sen

**Q.** What about the “Cisplatin Resistant” value (DV-90) of the same molecule?
**A.** Sen
